Values quoted from earlier work as cited in the PKSmart pharmacokinetics tables (Seal et al. 2025).

Assay: Lombardo, Berellini, Obach 2018, Drug Metab Dispos 46:1466, doi 10.1124/dmd.118.082966
Conditions: human; for fraction unbound: plasma; for MRT / Vd / clearance / half-life: in vivo, iv

SMILES | fraction unbound | MRT [h] | Vd [L/kg] | clearance [mL/min/kg] | half-life [min]
C[N+]1(CC2CC2)CC[C@]23c4c5ccc([O-])c4OC2C(=O)CC[C@@]3(O)[C@H]1C5 (stereo partly drawn) | 0.87 |  |  |  | 
COCCCN1CCC(NC(=O)c2cc(Cl)c(N)c3c2OCC3)CC1 | 0.7 | 32.2 | 8.73 | 4.55 | 1350
CCOc1ccc2ccccc2c1C(=O)NC1C(=O)N2C(C(=O)O)C(C)(C)S[C@H]12 (stereo partly drawn) | 0.13 | 1.1 | 0.22 | 3.3 | 42
COc1ccccc1Oc1c(NS(=O)(=O)c2ccc(C(C)(C)C)cc2)nc(-c2ncccn2)nc1OCCO | 0.037 | 2.3 | 0.29 | 2.1 | 246
COc1ccccc1N1CCN(CCCNc2cc(=O)n(C)c(=O)n2C)CC1 |  | 4 | 0.75 | 3.1 | 210
NC(CCC(=O)NC(Cc1ccc(O)c(O)c1)C(=O)O)C(=O)O (stereo not drawn) |  | 0.74 | 0.21 | 4.6 | 30
CS(=O)(=O)c1ccc2c(c1)N(CCCN1CCC(C(N)=O)CC1)c1ccccc1S2 |  |  |  | 12.1 | 240
NC(=O)c1cc[n+](CC2=C(C(=O)O)N3C(=O)C(NC(=O)C(c4ccccc4)S(=O)(=O)[O-])[C@H]3SC2)cc1 (stereo partly drawn) |  | 2.47 | 0.29 | 1.96 | 98.4
CC[C@H]1OC(=O)C[C@@H](O)[C@H](C)[C@@H](O[C@@H]2O[C@H](C)C[C@H](N(C)C)[C@@H]2O)[C@@H](CC=O)CC(C)C(=O)C=C[C@]2(C)O[C@H]2[C@@H]1C (stereo partly drawn) |  | 3.54 | 2.83 | 13.3 | 200
CCCn1c(=O)c2[nH]c(C34CC5CC(CC3C5)C4)nc2n(CCC)c1=O |  | 14.1 | 4.3 | 5 | 1090
CCc1cc2c(cc1CC)CC(NC[C@H](O)c1ccc(O)c3[nH]c(=O)ccc13)C2 |  | 72.4 | 19.4 | 4.48 | 5550
CC(CN1CCN(CCOCCO)CC1)CN1c2ccccc2Sc2ccccc21 (stereo not drawn) |  | 4.16 | 4.06 | 16.3 | 187
CC(C)COC[C@@H](CN(Cc1ccccc1)c1ccccc1)N1CCCC1 | 0.001 | 19.3 | 10.1 | 8.7 | 894
Cc1ncsc1CCCl | 0.36 | 3.3 | 6.6 | 33 | 270
C[C@@H](Oc1cc(-c2cnn(C3CCNCC3)c2)cnc1N)c1c(Cl)ccc(F)c1Cl | 0.09 |  |  |  | 
CC(C)(C)C(NC(=O)C(CC1CCCC1)CN(O)C=O)C(=O)N1CCN(Cc2ccc3c(c2)OCO3)CC1 (stereo not drawn) | 0.2 | 5.9 | 1.1 | 3.1 | 564
C=CC[N@@+]12CC[C@@]34c5ccccc5N5C=C6[C@H]7C[C@H]8[C@@]9(CC[N@@+]8(CC=C)C/C7=C/CO)c7ccccc7N(C=C([C@@H](C[C@@H]31)/C(=C\CO)C2)[C@H]54)[C@@H]69 |  | 4.1 | 0.32 | 1.3 | 216
Nc1ccc(O)c(C(=O)O)c1 | 0.39 | 0.59 | 0.33 | 9.3 | 36.6
Cc1cccc([C@H](C)c2c[nH]cn2)c1C | 0.06 | 2.5 | 1.6 | 11 | 132
C[C@@H](NCCc1ccc(O)cc1)[C@@H](O)c1ccc(O)cc1 | 0.64 | 2.4 | 4.4 | 31 | 156
CCC(C)CC(C)CCCCCCCCC(=O)NC1CC(O)C(NCCN)NC(=O)C2C(O)CCN2C(=O)C(C(O)CCN)NC(=O)C(C(O)C(O)c2ccc(O)cc2)NC(=O)C2CC(O)CN2C(=O)C(C(C)O)NC1=O (stereo not drawn) | 0.035 |  |  |  | 
CCN(CC)CCNC(=O)c1cc(S(C)(=O)=O)ccc1OC |  | 3.8 | 1.1 | 4.7 | 192
CC1(C)S[C@@H]2C(NC(=O)C(NC(=O)N3CCN(/N=C/c4ccco4)C3=O)c3ccc(O)cc3)C(=O)N2C1C(=O)O (stereo partly drawn) |  | 0.92 | 0.2 | 3.61 | 78

SMILES | fraction unbound | MRT [h] | Vd [L/kg] | clearance [mL/min/kg] | half-life [min]
CSCCC(N)C(=O)N[C@@]1(C(=O)O)CS(=O)(=O)[C@H]2C(C(=O)O)[C@H]21 (stereo partly drawn) |  | 0.75 | 0.44 | 9.73 | 50.4
COc1cccc2c1[C@H](CO)N1[C@H](C#N)[C@@H]3CC(C(=O)O)[C@H]([C@@H]1C2)N3C (stereo partly drawn) |  | 1.23 | 0.23 | 3.06 | 91.2
CN(C)CCC(c1ccc(Cl)cc1)c1ccccn1 (stereo not drawn) |  | 22 | 3.3 | 2.5 | 
CCCCCN(C)CCC(O)(P(=O)(O)O)P(=O)(O)O | 0.15 | 5.1 | 0.55 | 1.8 | 840
CC(C)CC(NC(=O)C(CCc1ccccc1)NC(=O)CN1CCOCC1)C(=O)NC(Cc1ccccc1)C(=O)NC(CC(C)C)C(=O)[C@@]1(C)CO1 (stereo partly drawn) | 0.02 | 0.05 | 0.13 | 39.5 | 66
O=C(O)C(Cl)Cl |  | 0.6 | 0.19 | 5.3 | 39
N#CN |  | 0.8 | 0.78 | 17 | 25.8
NC[C@H]1O[C@H](O[C@H]2[C@H](O)[C@@H](O[C@H]3O[C@H](CO)[C@@H](O)[C@H](N)[C@H]3O)[C@H](N)C[C@@H]2N)[C@H](O)[C@@H](O)[C@@H]1O |  | 3.1 | 0.26 | 1.4 | 126
COc1cc(C(=O)C(=O)N2CCCCC2C(=O)OC(CCCc2cccnc2)CCCc2cccnc2)cc(OC)c1OC (stereo not drawn) |  | 2.62 | 1.34 | 8.5 | 66
CC1(C)[C@H]2CC[C@@]3(C)C(C(=O)C=C4C5C[C@](C)(C(=O)O)CC[C@@]5(C)CC[C@@]43C)[C@]2(C)CC[C@H]1O[C@H]1OC(C(=O)O)[C@@H](O)[C@H](O)[C@H]1O[C@@H]1OC(C(=O)O)[C@@H](O)[C@H](O)[C@H]1O (stereo partly drawn) |  | 30.9 | 0.09 | 0.05 | 1390
CO/N=C1\CN(c2nc3c(cc2F)c(=O)c(C(=O)O)cn3C2CC2)CC1CN (stereo not drawn) | 0.3 | 8.1 | 3.52 | 7.2 | 498
NC(=O)c1cccc(N)c1 |  | 4 | 1.9 | 7.9 | 300
CCCCCCCCCCCCCCC[C@@H](O)[C@H](C)N |  | 8.89 | 30.7 | 57.6 | 1780
CON=C(C(=O)NC1C(=O)N2C(C(=O)O)=C(C)CS[C@H]12)c1csc(N)n1 (stereo partly drawn) | 0.78 | 2.5 | 0.28 | 1.9 | 126
Cc1ccc2c(-c3ccccc3)nc(=O)n(C(C)C)c2c1 | 0.02 | 0.92 | 0.52 | 9.45 | 76.2
CC1(C)S[C@@H]2C(NC(=O)COc3ccccc3)C(=O)N2C1C(=O)O (stereo partly drawn) |  | 1 | 0.41 | 6.8 | 50.4
COc1ccc(OC)c([C@H](O)CNC(=O)CN)c1 | 0.7 | 0.4 | 0.67 | 27.9 | 36
CN[C@@H]1[C@@H](O)[C@@H](O[C@@H]2[C@@H](O)[C@H](O[C@H]3O[C@H]([C@@H](C)N)CC[C@H]3N)[C@@H](N)C[C@H]2N)OC[C@]1(C)O | 1 |  |  |  | 
CC(C)(O)[C@@H]1CC[C@](C)([C@H]2[C@@H](O)C[C@@]3(C)[C@@H]4C[C@H](O[C@@H]5O[C@H](CO)[C@@H](O)[C@H](O)[C@H]5O)[C@H]5C(C)(C)[C@@H](O[C@@H]6OC[C@@H](O)[C@H](O)[C@H]6O)CC[C@@]56C[C@@]46CC[C@]23C)O1 | 0.14 | 2.78 | 0.12 | 0.74 | 159
CON=C(C(=O)NC1C(=O)N2C(C(=O)O)=C(CSc3cnns3)CS[C@H]12)c1csc(N)n1 (stereo partly drawn) | 0.12 | 0.82 | 0.2 | 4.1 | 68.4
Cn1c(CNc2ccc(C(=N)N)cc2)nc2cc(C(=O)N(CCC(=O)O)c3ccccn3)ccc21 | 0.65 | 7.4 | 0.85 | 1.93 | 438
Oc1cc2cc(CCN3CCN(c4nsc5ccccc45)CC3)c(Cl)cc2[nH]1 |  | 3.3 | 1 | 5.1 | 186
Nc1nc(C(=NO)C(=O)NC2C(=O)N3C(C(=O)O)=C(C=C4CCN([C@@H]5CCNC5)C4=O)CS[C@H]23)ns1 (stereo partly drawn) | 0.62 | 3 | 0.27 | 1.5 | 198

SMILES | fraction unbound | MRT [h] | Vd [L/kg] | clearance [mL/min/kg] | half-life [min]
C[C@@H](NCCCc1cccc(C(F)(F)F)c1)c1cccc2ccccc12 | 0.05 | 16 | 17.6 | 18.3 | 1190
COc1cc2c(N)nc(N3CCN(C(=O)OCC(C)(C)O)CC3)nc2c(OC)c1OC |  | 3.1 | 0.18 | 0.96 | 186
CCN(CC)C(=O)[C@]1(c2ccccc2)C[C@@H]1CN |  | 8.17 | 4.51 | 8.17 | 389
C[C@H]1CN(CC(Cc2ccccc2)C(=O)NCC(=O)O)CC[C@@]1(C)c1cccc(O)c1 (stereo partly drawn) | 0.2 | 1.24 | 0.43 | 5.84 | 318
CC(C)(C(=O)O)c1ccc(C(=O)CCCN2CCC(OC(c3ccccc3)c3ccccc3)CC2)cc1 | 0.05 | 16.7 | 0.41 | 0.4 | 588
CN/C(=N\CCSCc1nc[nH]c1C)NC#N |  | 2.5 | 1.2 | 8.1 | 132
CC(=O)N[C@H]1[C@H]([C@H](O)[C@H](O)CO)OC(C(=O)O)=C[C@@H]1NC(=N)N |  | 2.4 | 0.23 | 1.6 | 102
CC(=O)O[C@H]1C[C@@H]2CC[C@@H]3[C@H](CC[C@@]4(C)[C@H]3C[C@H]([N+]3(C)CCCCC3)[C@@H]4OC(C)=O)[C@@]2(C)C[C@@H]1[N+]1(C)CCCCC1 | 0.09 | 2.2 | 0.2 |  | 114
CC(N)CCCC(C)(C)O (stereo not drawn) |  | 3.24 | 2.14 | 10.7 | 150
CCOC(=O)C1(c2ccccc2)CCN(CCC(O)c2ccccc2)CC1 (stereo not drawn) |  | 4.32 | 5.7 | 22 | 193
Cc1ccc(-n2ccnc2)cc1C(O)c1c(C)cc(C(=O)O)cc1C (stereo not drawn) |  | 2.17 | 0.37 | 2.91 | 142
CN[C@@H]1[C@@H](O)[C@@H](O[C@@H]2[C@@H](O)[C@H](O[C@H]3OC(CN)=CC[C@H]3N)[C@@H](N)C[C@H]2N)OC[C@]1(C)O | 0.15 | 3.2 | 0.19 | 1 | 144
COc1c(C)c2c(c(O)c1C/C=C(\C)CCC(=O)O)C(=O)OC2 | 0.02 | 6.5 | 0.77 | 2.33 | 582
Clc1ccc(COC(Cn2ccnc2)c2ccc(Cl)cc2Cl)c(Cl)c1 (stereo not drawn) | 0.08 | 12.6 | 7.14 | 9.48 | 1180
CC(C)[C@@H](CC[C@@H](C)[C@H]1CC[C@H]2[C@@H]3[C@H](O)C[C@H]4C[C@@H](NCCCNCCCCN)CC[C@]4(C)[C@H]3CC[C@]12C)OS(=O)(=O)O |  | 3.2 | 0.23 | 1.2 | 570
COc1cc([C@@H]2c3cc4c(cc3[C@@H](O[C@@H]3O[C@@H]5CO[C@@H](c6cccs6)O[C@H]5[C@H](O)[C@H]3O)[C@H]3COC(=O)C23)OCO4)cc(OC)c1O (stereo partly drawn) | 0.0044 | 37 | 0.41 | 0.19 | 960
C=CCc1ccccc1OCC(O)CNC(C)C (stereo not drawn) |  | 3.6 | 3.2 | 15 | 150
Nc1nc2[nH]cnc2c(=S)[nH]1 |  | 3.13 | 2.89 | 15.4 | 1460
CS(=O)(=O)c1cc(F)cc2c3c(n(Cc4ccc(Cl)cc4)c12)[C@@H](CC(=O)O)CC3 |  | 13.7 | 1 | 1.21 | 708
CCC1(c2cnc[nH]2)Cc2ccccc2C1 |  | 2.3 | 2.7 | 19.6 | 102
Fc1ccc([C@@H]2CCNC[C@H]2COc2ccc3c(c2)OCO3)cc1 | 0.06 | 17 | 18 | 18 | 780
C[C@@H]1C=C2CC(=O)CCC2[C@H]2CC[C@]3(C)[C@@H](O)CC[C@H]3[C@H]12 (stereo partly drawn) |  | 0.67 | 0.8 | 20 | 39
CCN(CC)CCN(Cc1ccc(-c2ccc(C(F)(F)F)cc2)cc1)C(=O)Cn1c(SCc2ccc(F)cc2)nc(=O)c2c1CCC2 |  | 48.1 | 11.9 | 4.11 | 2450
